# Test system: RNA isoforms in PNN 1-46 SMA type I patient-derived fibroblasts
# Assay: RNA Abundance Modulation (RNA isoform abundance, iFPM, HiSeq RNA sequencing)
# Type: cell-based, human
# Conditions: 3 μM
# Procedure: Cells from a cell line of interest are cultured in conditions sufficient to yield the number of cells capable of generating enough RNA for subsequent sequencing steps. Cells from the tested cell line are contacted with a compound described herein.
# To culture said cells, they are seeded, at appropriate concentrations in a volume of media in a cell culture container and incubated for 4, 5, 6, 7, 8, 9, 10, or more hours. A concentrated solution of compound in a vehicle (e.g., DMSO) is then added in sufficient volume to result in the intended final concentration of the compound, for example 100 nM, 500 nM, 1 μM, 5 μM, 10 μM, 15 μM, 20 μM, or more. The cells may also be treated with vehicle alone, as a control. A number of replicates of each concentration or control may be made (e.g., 2 replicates). The cells are then incubated at a constant temperature appropriate for cell culture of the particular cell line (e.g., 37° C.) for 6, 12, 18, 24, 48, or more hours. After incubation, the growth medium is removed and the cells are washed with the appropriate buffer (e.g., PBS). Cells are then removed from adherence to the cell culture container by treatment with a solution containing trypsin, and the trypsin subsequently quenched with the appropriate volume of buffer (e.g., DMEM-FBS). The cells are then pelleted with gentle centrifugation (e.g., ≤90×g centrifugal force) and resuspended in a buffer to lyse the cells for extraction of RNA. The cell lysates may then be frozen (e.g., at −80° C.) or, alternately, may immediately be used in a procedure to purify the RNA (e.g. by use of the RNEASY PLUS® minikit). The RNA from cell lysates is eluted in the appropriate volume of buffer (e.g., RNEASE-FREE H2O®). The resulting purified RNA may then be sequenced (e.g., using RNASeq) or analyzed using a human exon array (e.g., by GENECHIP® human exon array) to determine changes in the RNA levels in those cells treated with compound compared to those cells treated only with DMSO. The purified RNA may also be quantified by other methods known in the art.
# Using the RNA data obtained from sequencing, exon array, or other methods, a statistical analysis can reveal changes in the RNA levels of compound-treated compared with control. For example, t-test p-values may be calculated for the data obtained through sequencing and exon array methods in order to compare compound-treated cells to those treated with the DMSO control. […] Analysis of the sequencing and exon array data may then also yield predictions about the cause of the aberrant amount of an RNA transcript in the cells (e.g., perturbation of RNA splicing, RNA transcription, or RNA stability). These predictions may be further confirmed by methods known in the art. For example, RT-PCR and RT-qPCR may be used to confirm the change in amount of RNA transcripts for one or more particular transcripts of interest.
# Following the methods described above in Example 1, PNN 1-46 SMA type I patient-derived fibroblasts were treated with 300 nM or 3 μM Compounds 774 and 808 in 0.5% DMSO.
# 700,000 cells were seeded in 10 mL of medium (DMEM plus 10% FBS) in a T-75 flask. Cells were allowed to attach for at least 4 hrs, after which 50 μL of a 200× compound solution (100% DMSO) was added to each well, and the plate was incubated at 37° C. for 24 hrs.
# At the end of the incubation period, the supernatant was removed and the cells where washed with PBS. TrypLE (Invitrogen) express solution was added (e.g. 1.5 mL per one T75 flask). The flasks were incubated for 3 to 5 min at 37° C. The trypsin was then quenched, e.g., by adding 10 mL DMEM-FBS.
# Next, the cells were pelleted using gentle centrifugation without exceeding 90×g centrifugal force. The supernatant was removed and the cell pellet was re-suspended in 600 μL RLT buffer (the RLT buffer was supplemented with beta-mercaptoethanol according to the RNeasy protocol manual) by pipetting up and down until the pellet was completely dissolved […]
compound,measurement,setting,value
CCc1nc(C)cn2nc(-c3cc(=O)n4cc(C5CCN(C)CC5)cc(C)c4n3)cc12 [Compound 774],L2FC (x + 1),TRAPPC12 AK094181,0.288
same,L2abs (Cpd-DMSO),TRAPPC12 AK094181,2.20
same,abs (Cpd-DMSO),TRAPPC12 AK094181,5 iFPM
same,amp FC (x + 1),TRAPPC12 AK094181,1.22
same,ave Cpd,TRAPPC12 AK094181,24 iFPM
same,FC (x + 1),TRAPPC12 AK098327,0.0066
same,L2FC (x + 1),TRAPPC12 AK098327,−7.244
same,L2abs (Cpd-DMSO),TRAPPC12 AK098327,7.23
same,abs (Cpd-DMSO),TRAPPC12 AK098327,151 iFPM
same,amp FC (x + 1),TRAPPC12 AK098327,151.58
same,ave Cpd,TRAPPC12 AK098327,0 iFPM
same,FC (x + 1),TRAPPC12 NM_016030,1.2575
same,L2FC (x + 1),TRAPPC12 NM_016030,0.331
same,L2abs (Cpd-DMSO),TRAPPC12 NM_016030,7.32
same,abs (Cpd-DMSO),TRAPPC12 NM_016030,160 iFPM
same,amp FC (x + 1),TRAPPC12 NM_016030,1.26
same,ave Cpd,TRAPPC12 NM_016030,781 iFPM
same,FC (x + 1),TRIM2 BC025417,0.7534
same,L2FC (x + 1),TRIM2 BC025417,−0.408
same,L2abs (Cpd-DMSO),TRIM2 BC025417,0.61
same,abs (Cpd-DMSO),TRIM2 BC025417,2 iFPM
same,amp FC (x + 1),TRIM2 BC025417,1.33
same,ave Cpd,TRIM2 BC025417,4 iFPM
same,FC (x + 1),TRIM2 NM_015271,1.1211
same,L2FC (x + 1),TRIM2 NM_015271,0.165
same,L2abs (Cpd-DMSO),TRIM2 NM_015271,7.65
same,abs (Cpd-DMSO),TRIM2 NM_015271,201 iFPM
same,amp FC (x + 1),TRIM2 NM_015271,1.12
same,ave Cpd,TRIM2 NM_015271,1858 iFPM
same,FC (x + 1),TRIM2 NM_001130067,0.0184
same,L2FC (x + 1),TRIM2 NM_001130067,−5.763
same,L2abs (Cpd-DMSO),TRIM2 NM_001130067,5.74
same,abs (Cpd-DMSO),TRIM2 NM_001130067,53 iFPM
same,amp FC (x + 1),TRIM2 NM_001130067,54.29
same,ave Cpd,TRIM2 NM_001130067,0 iFPM
same,FC (x + 1),TRIM65 NM_173547,1.6613
same,L2FC (x + 1),TRIM65 NM_173547,0.732
same,L2abs (Cpd-DMSO),TRIM65 NM_173547,7.49
same,abs (Cpd-DMSO),TRIM65 NM_173547,179 iFPM
same,amp FC (x + 1),TRIM65 NM_173547,1.66
same,ave Cpd,TRIM65 NM_173547,449 iFPM
same,FC (x + 1),TRIM65 NM_001256124,0.0055
same,L2FC (x + 1),TRIM65 NM_001256124,−7.514
same,L2abs (Cpd-DMSO),TRIM65 NM_001256124,7.51
same,abs (Cpd-DMSO),TRIM65 NM_001256124,182 iFPM
same,amp FC (x + 1),TRIM65 NM_001256124,182.75
same,ave Cpd,TRIM65 NM_001256124,0 iFPM
same,FC (x + 1),TSPAN2 GU971730,0.3567
same,L2FC (x + 1),TSPAN2 GU971730,−1.487
same,L2abs (Cpd-DMSO),TSPAN2 GU971730,4.19
same,abs (Cpd-DMSO),TSPAN2 GU971730,18 iFPM
same,amp FC (x + 1),TSPAN2 GU971730,2.80
same,ave Cpd,TSPAN2 GU971730,9 iFPM
same,FC (x + 1),TSPAN2 NM_005725,0.3229
same,L2FC (x + 1),TSPAN2 NM_005725,−1.631
same,L2abs (Cpd-DMSO),TSPAN2 NM_005725,8.17
same,abs (Cpd-DMSO),TSPAN2 NM_005725,288 iFPM
same,amp FC (x + 1),TSPAN2 NM_005725,3.10
same,ave Cpd,TSPAN2 NM_005725,136 iFPM
same,FC (x + 1),U2SURP AK057679,1.1346
same,L2FC (x + 1),U2SURP AK057679,0.182
same,L2abs (Cpd-DMSO),U2SURP AK057679,4.73
same,abs (Cpd-DMSO),U2SURP AK057679,27 iFPM
same,amp FC (x + 1),U2SURP AK057679,1.13
same,ave Cpd,U2SURP AK057679,223 iFPM
same,FC (x + 1),U2SURP AK296440,0.9747
same,L2FC (x + 1),U2SURP AK296440,−0.037
same,L2abs (Cpd-DMSO),U2SURP AK296440,2.77
same,abs (Cpd-DMSO),U2SURP AK296440,7 iFPM
same,amp FC (x + 1),U2SURP AK296440,1.03
same,ave Cpd,U2SURP AK296440,261 iFPM
same,FC (x + 1),U2SURP BC006474,0.9155
same,L2FC (x + 1),U2SURP BC006474,−0.127
same,L2abs (Cpd-DMSO),U2SURP BC006474,6.85
same,abs (Cpd-DMSO),U2SURP BC006474,115 iFPM
